In brackets after ≈: the same amount, converted by molar mass. Where two headings read alike, the source gives them in different places.
Legend:
[1] = system: Mycobacterium marinum ATCC 927; experiment: Anti-mycobacterial activity of nitazoxanides, MIC in Middlebrook 7H9; format: cell-based; conditions: Middlebrook 7H9, 30° C.; for MIC: Mycobacterium marinum, ATCC927, read-out: Minimal Inhibitory Concentration, M. marinum
Protocol: (§1) (1) Strains: Mycobacterium smegmatis mc2155, Mycobacterium chelonae EOP-1, Mycobacterium marinum ATCC 927, Mycobacterium avium Va14(T), and Mycobacterium abscessus AAy-P-1).
(§2) (2) Medium: Middlebrook 7H9 containing 0.5% (vol/vol) glycerol and 10% (vol/vol) oleic acid-albumin.
(§3) (3) Incubation Temperature: 37° C., except M. marinum 30° C.
(§4) (4) Nitazoxanides: Precipitates were present in wells of nitazoxanides with high concentrations (250-31 μg/mL) except for 162080, 162088, 16b2026, and 16b2031.
(§5) The strains used were Mycobacterium smegmatis mc2155, Mycobacterium chelonae EOP-1, Mycobacterium marinum ATCC 927, Mycobacterium avium Va14(T), and Mycobacterium abscessus AAy-P-1. The medium use was Middlebrook 7H9 containing 0.5% (vol/vol) glycerol and 10% (vol/vol) oleic acid-albumin. Incubation Temperature was 37° C., except for M. marinum at 30° C. For nitazoxanides, precipitates were present in wells of nitazoxanides with high concentrations (250-31 μg/mL) except for 162080, 162088, 16b2026, and 16b2031.

[2] = system: Mycobacterium abscessus AAy-P-1; experiment: as above; format: cell-based; conditions: Middlebrook 7H9, 37° C.; for MIC: Mycobacteroides abscessus, AAYP1, read-out: Minimal Inhibitory Concentration, M. abscessus
Protocol: as §1, §2, §3, §4, §5

[3] = system: Mycobacterium avium Va14(T); experiment: as above; format: cell-based; conditions: Middlebrook 7H9, 37° C.; for MIC: Mycobacterium avium, read-out: Minimal Inhibitory Concentration, M. avium
Protocol: as §1, §2, §3, §4, §5

[4] = system: Mycobacterium chelonae EOP-1; experiment: as above; format: cell-based; conditions: Middlebrook 7H9, 37° C.; for MIC: read-out: Minimal Inhibitory Concentration, M. chelonae
Protocol: as §1, §2, §3, §4, §5

M. tuberculosis = experiment: microbe, parasite or virus in culture; format: cell-based, Mycobacterium tuberculosis; parameters: % Inhibit growth, H37Rv / % Inhibit growth, Susceptible / % Inhibit growth, MDR / % Inhibit growth, XDR / inhibition: dose or concentration left out as unconfirmed; conditions: for inhibition: Mycobacterium tuberculosis; for Potency against M. tuberculosis in words (Table 1) / % Inhibit growth, MDR / % Inhibit growth, Susceptible / % Inhibit growth, XDR / % Inhibit growth, H37Rv: agar proportion method; for % Inhibit growth, MDR: MDR strain; for % Inhibit growth, Susceptible: Susceptible strain; for % Inhibit growth, XDR: XDR strain; for % Inhibit growth, H37Rv: strain H37Rv
[5] = system: Mycobacterium smegmatis mc2155; experiment: Anti-mycobacterial activity of nitazoxanides, MIC in Middlebrook 7H9; format: cell-based; conditions: Middlebrook 7H9, 37° C.; for MIC: Mycolicibacterium smegmatis, MC2155, read-out: Minimal Inhibitory Concentration, M. smegmatis
Protocol: as §1, §2, §3, §4
(5) Decolorization: Almost all the yellow nitazoxanides, namely 16b1090, 16b1092 and 16b1093, 16b1094, 16b2023, 16b2025, and 16b2026 were decolorized by M. smegmatis strain mc2155. None of the other mycobacterial strains decolorized the compounds. Note that the compound numbers are also referred to herein with the prefix VPC.
as §5
Decolorization: Almost all the yellow nitazoxanides, namely 16b1090, 16b1092 and 16b1093, 16b1094, 16b2023, 16b2025, and 16b2026 were decolorized by M. smegmatis strain mc2155. None of the other mycobacterial strains decolorized the compounds.

[6] = system: Mycobacterium tuberculosis; experiment: microbe, parasite or virus in culture; conditions: agar proportion
[7] = read-out: % Inhibit growth, MDR
[8] = read-out: % Inhibit growth, XDR
[9] = H37RV, isolate H37Rv (Reference)

O=C(Nc1sc([N+](=O)[O-])cc1[N+](=O)[O-])c1ccccc1 [VPC16b1090]
MIC [1]: 4 µg/mL (≈ 13.6 µM)
MIC [2]: 0.5 µg/mL (≈ 1.7 µM)
MIC [3]: 8 µg/mL (≈ 27.3 µM)
MIC [4]: 1 µg/mL (≈ 3.41 µM)
inhibition (M. tuberculosis; [7]): 100%
inhibition (M. tuberculosis; [8]): 100%
Potency against M. tuberculosis in words (Table 1) (M. tuberculosis): most potent
MIC [5]: 16 µg/mL (≈ 54.6 µM)
MIC [6, 9]: 4000 µg/mL (≈ 13600 µM)
MIC ([6]; isolate 234 (MDR-TB)): 4000 µg/mL (≈ 13600 µM)
MIC ([6]; isolate 283 (susceptible)): 4000 µg/mL (≈ 13600 µM)
MIC ([6]; isolate 565 (MDR-TB)): 4000 µg/mL (≈ 13600 µM)
MIC ([6]; isolate 694 (MDR-TB)): 2000 µg/mL (≈ 6820 µM)
MIC ([6]; isolate 750 (MDR-TB)): 4000 µg/mL (≈ 13600 µM)
MIC ([6]; isolate 823 (XDR-TB)): 4000 µg/mL (≈ 13600 µM)
MIC ([6]; isolate 971 (MDR-TB)): 2000 µg/mL (≈ 6820 µM)

O=C(Nc1sc([N+](=O)[O-])cc1[N+](=O)[O-])c1cccs1 [VPC16b1093, N-(3,5-Dinitrothiophen-2-yl)thiophene-2-carboxamide]
MIC [1]: 31 µg/mL (≈ 104 µM)
MIC [2]: 1 µg/mL (≈ 3.34 µM)
MIC [3]: 31 µg/mL (≈ 104 µM)
MIC [4]: 2 µg/mL (≈ 6.68 µM)
inhibition (M. tuberculosis; [7]): 100%
inhibition (M. tuberculosis; [8]): 100%
MIC [5]: 125 µg/mL (≈ 418 µM)

CCCCCC(=O)Nc1sc([N+](=O)[O-])cc1[N+](=O)[O-] [VPC16b1089]
Minimal Inhibitory Concentration, M. marinum [1]: 16 µg/mL
Minimal Inhibitory Concentration, M. abscessus [2]: 4. μg/mL
Minimal Inhibitory Concentration, M. avium [3]: 63 µg/mL
Minimal Inhibitory Concentration, M. chelonae [4]: 31 µg/mL
% Inhibit growth, MDR (M. tuberculosis): 0%
% Inhibit growth, Susceptible (M. tuberculosis): 0%
% Inhibit growth, XDR (M. tuberculosis): 0%
% Inhibit growth, H37Rv (M. tuberculosis): 0%
Minimal Inhibitory Concentration, M. smegmatis [5]: 125 µg/mL

O=C(Nc1sc([N+](=O)[O-])cc1[N+](=O)[O-])c1cc(C(F)(F)F)ccc1Cl [VPC16b2026, 2-Chloro-N-(3,5-dinitrothiophen-2-yl)-5-(trifluoromethyl)benzamide]
MIC [1]: 8 µg/mL (≈ 20.2 µM)
MIC [2]: 0.25 µg/mL (≈ 0.632 µM)
MIC [3]: 16 µg/mL (≈ 40.4 µM)
MIC [4]: 4 µg/mL (≈ 10.1 µM)
MIC [5]: 31 µg/mL (≈ 78.3 µM)

O=C(Nc1nc(Cl)c([N+](=O)[O-])s1)c1cccc(C(F)(F)F)c1 [VPC162088]
MIC [1]: 31 µg/mL (≈ 88.1 µM)
MIC [2]: 0.5 µg/mL (≈ 1.42 µM)
MIC [3]: 250 µg/mL (≈ 711 µM)
MIC [4]: 63 µg/mL (≈ 179 µM)
inhibition (M. tuberculosis; [7]): 90%
inhibition (M. tuberculosis; [8]): 70%
MIC [5]: 31 µg/mL (≈ 88.1 µM)

NNC(=O)c1ccncc1 [Isoniazid, reference compound]
MIC [6, 9]: ≤ 125 µg/mL
MIC ([6]; isolate 234 (MDR-TB)): 16000 µg/mL (≈ 117000 µM)
MIC ([6]; isolate 283 (susceptible)): ≤ 125 µg/mL
MIC ([6]; isolate 565 (MDR-TB)): 8000 µg/mL (≈ 58300 µM)
MIC ([6]; isolate 694 (MDR-TB)): 16000 µg/mL (≈ 117000 µM)
MIC ([6]; isolate 750 (MDR-TB)): 8000 µg/mL (≈ 58300 µM)
MIC ([6]; isolate 823 (XDR-TB)): 8000 µg/mL (≈ 58300 µM)
MIC ([6]; isolate 971 (MDR-TB)): 4000 µg/mL (≈ 29200 µM)

NCCOc1ccccc1C(=O)Nc1sc([N+](=O)[O-])cc1[N+](=O)[O-] [VPC16b2031, 2-(2-Aminoethoxy)-N-(3,5-dinitrothiophen-2-yl)benzamide]
MIC [1]: 16 µg/mL (≈ 45.4 µM)
MIC [2]: 250 µg/mL (≈ 710 µM)
MIC [3]: 63 µg/mL (≈ 179 µM)
MIC [4]: 125 µg/mL (≈ 355 µM)
MIC [5]: 63 µg/mL (≈ 179 µM)

O=C(Nc1ncc([N+](=O)[O-])s1)c1cccc(C(F)(F)F)c1 [VPC161183, N-(5-Nitrothiazol-2-yl)-3-(trifluoromethyl)benzamide]
inhibition (M. tuberculosis; [7]): 70%
inhibition (M. tuberculosis; [8]): 50%

CO[C@H]1/C=C/O[C@@]2(C)Oc3c(C)c(O)c4c(O)c(c(/C=N/N5CCN(C)CC5)c(O)c4c3C2=O)NC(=O)/C(C)=C\C=C\[C@H](C)[C@H](O)[C@@H](C)[C@@H](O)[C@@H](C)[C@H](OC(C)=O)[C@@H]1C [Rifampin, reference compound]
MIC [6, 9]: ≤ 125 µg/mL
MIC ([6]; isolate 234 (MDR-TB)): 16000 µg/mL (≈ 19400 µM)
MIC ([6]; isolate 283 (susceptible)): ≤ 125 µg/mL
MIC ([6]; isolate 565 (MDR-TB)): ≥ 32000 µg/mL
MIC ([6]; isolate 694 (MDR-TB)): ≥ 32000 µg/mL
MIC ([6]; isolate 750 (MDR-TB)): ≥ 32000 µg/mL
MIC ([6]; isolate 823 (XDR-TB)): ≥ 32000 µg/mL
MIC ([6]; isolate 971 (MDR-TB)): ≥ 32000 µg/mL

O=C(Nc1ncc([N+](=O)[O-])s1)c1cc2ccccc2s1 [VPC161180]
% Inhibit growth, MDR (M. tuberculosis): 0%
% Inhibit growth, Susceptible (M. tuberculosis): 0%
% Inhibit growth, XDR (M. tuberculosis): 50%
% Inhibit growth, H37Rv (M. tuberculosis): 80%

O=C(Nc1nc(Cl)c([N+](=O)[O-])s1)c1ccccc1 [VPC162087]
Minimal Inhibitory Concentration, M. marinum [1]: 16 µg/mL
Minimal Inhibitory Concentration, M. abscessus [2]: >250 µg/mL
Minimal Inhibitory Concentration, M. avium [3]: 125 µg/mL
Minimal Inhibitory Concentration, M. chelonae [4]: 16 µg/mL
% Inhibit growth, MDR (M. tuberculosis): 100%
% Inhibit growth, Susceptible (M. tuberculosis): 97%
% Inhibit growth, XDR (M. tuberculosis): 100%
% Inhibit growth, H37Rv (M. tuberculosis): 97%
Minimal Inhibitory Concentration, M. smegmatis [5]: 31 µg/mL

O=C(Nc1sc([N+](=O)[O-])cc1[N+](=O)[O-])c1ccoc1 [VPC16b1094]
MIC [1]: 4 µg/mL (≈ 14.1 µM)
MIC [2]: 2 µg/mL (≈ 7.06 µM)
MIC [3]: 16 µg/mL (≈ 56.5 µM)
MIC [4]: 2 µg/mL (≈ 7.06 µM)
inhibition (M. tuberculosis; [7]): 100%
inhibition (M. tuberculosis; [8]): 100%
Potency against M. tuberculosis in words (Table 1) (M. tuberculosis): most potent
MIC [5]: 16 µg/mL (≈ 56.5 µM)
MIC [6, 9]: 4000 µg/mL (≈ 14100 µM)
MIC ([6]; isolate 234 (MDR-TB)): 4000 µg/mL (≈ 14100 µM)
MIC ([6]; isolate 283 (susceptible)): 4000 µg/mL (≈ 14100 µM)
MIC ([6]; isolate 565 (MDR-TB)): 4000 µg/mL (≈ 14100 µM)
MIC ([6]; isolate 694 (MDR-TB)): 4000 µg/mL (≈ 14100 µM)
MIC ([6]; isolate 750 (MDR-TB)): 4000 µg/mL (≈ 14100 µM)
MIC ([6]; isolate 823 (XDR-TB)): 4000 µg/mL (≈ 14100 µM)
MIC ([6]; isolate 971 (MDR-TB)): 4000 µg/mL (≈ 14100 µM)

CCCCCC(=O)Nc1nc(Cl)c([N+](=O)[O-])s1 [VPC162080]
Minimal Inhibitory Concentration, M. marinum [1]: 16 µg/mL
Minimal Inhibitory Concentration, M. abscessus [2]: 0.25 µg/mL
Minimal Inhibitory Concentration, M. avium [3]: 125 µg/mL
Minimal Inhibitory Concentration, M. chelonae [4]: 16 µg/mL
% Inhibit growth, MDR (M. tuberculosis): 95%
% Inhibit growth, Susceptible (M. tuberculosis): 73%
% Inhibit growth, XDR (M. tuberculosis): 90%
% Inhibit growth, H37Rv (M. tuberculosis): 90%
Minimal Inhibitory Concentration, M. smegmatis [5]: 125 µg/mL

CC(C)(C)OC(=O)Nc1ccccc1C(=O)Nc1ncc([N+](=O)[O-])s1 [VPC162047, tert-Butyl 2-(5-nitrothiazol-2-ylcarbamoyl)phenylcarbamate]
inhibition (M. tuberculosis; [7]): 92%
inhibition (M. tuberculosis; [8]): 50%

O=C(Nc1ncc([N+](=O)[O-])s1)c1ccc(Cl)c(C(F)(F)F)c1 [VPC16a1060, 4-Chloro-N-(5-nitrothiazol-2-yl)-3-(trifluoromethyl)benzamide]
inhibition (M. tuberculosis; [7]): 98%
inhibition (M. tuberculosis; [8]): 90%

— US9333193B2, “Compositions and methods for treating tuberculosis” (priority 2010, dated 2016)
